From patent US11180760B2, “Identification of molecular pathways and methods of use thereof for treating retinal neurodegeneration and other neurodegenerative disorders” (THE JOHNS HOPKINS UNIVERSITY, priority 2012, dated 2021)

Tests used:
RGCs = RGCs transfected with MAP3K12/MAP3K13 siRNA then plated in sunitinib or VX680, survival at 72 hours; format: cell-based, mice; conditions: RGCs transfected with 10 nM siRNA against MAP3K12 and MAP3K13 alone or in combination, 0, 12, 37, 111, 333, 1000 nM drug (FIG. 3F)
Description: RGCs were transfected with 10 nM siRNA against MAP3K12 and MAP3K13 alone or in combination and then plated in 0, 12, 37, 111, 333, and 1000 nM sunitinib (FIG. 3F on left) or VX680 (FIG. 3F on right). Survival at 72 hours is shown.

primary RGCs = assay: Primary RGC survival in neurotrophin-depleted media with kinase inhibitors (calcein AM)
Description: To determine the neuroprotective effects of the broad-spectrum kinase inhibitors, sunitinib and VX680, primary RGCs were plated in neurotrophin-depleted media and stained with calcein AM at 72 hours in the absence (vehicle) or presence of 1 μM sunitinib (FIG. 1, Panel A).
Retinas were isolated from postnatal 0-5-d mice and dissociated with papain. Microglia were immunodepleted with anti-CD11b conjugated Dynabeads (Life Technologies). The suspension of retinal cells was immunopanned on plates preconjugated with anti-Thy1.2 antibody (Serotec, MCA028) and goat antimouse IgM (Jackson Immunoresearch) at room temperature (RT). After washing, retinal ganglion cellS (RGCs) were released from the plate by a cell lifter, counted, and seeded at a density of 10,000 per well in 96-well plates in the media composed of Neurobasal (Life Technologies), B27, N2 supplement, Lglutamine, and penicillin/streptomycin. After a 72-h culture at 37° C., RGCs were stained with calceinAM (acetomethoxy derivate of calcein), ethidium homodimer, and Hoechst 33342. Images were taken from portions of each well with a Cellomics ArrayScan VTI HCS Reader (Thermo Fisher), and cell survival was quantified using the Cellomics Neuronal Profiling bioapplication. As indicated, RGC viability was alternatively measured by Cell-Titer-Glo (Promega) luminescence.

Cc1cc(Nc2cc(N3CCN(C)CC3)nc(Sc3ccc(NC(=O)C4CC4)cc3)n2)n[nH]1 [VX680]
cell viability, survival at 72 hours (RGCs): higher cell viability | survival of primary RGCs at higher doses (primary RGCs; at higher doses (FIG. 1B)): greater number of viable cells | survival of primary RGCs in response to increasing doses (primary RGCs; increasing doses (FIG. 1B)): neuroprotective
